How the values were obtained:
[1] = target: Serine/threonine-protein kinase MARK2 (Homo sapiens, UniProt Q7KZI7); assay: Inhibition of recombinant full-length human PAR1Balpha using KKKVSRSGLYRSP as substrate measured after 40 mins in presence of [gamma33P]ATP by radiometric scintillation counting analysis
[2] = target: cAMP-dependent protein kinase catalytic subunit beta (Homo sapiens, UniProt P22694); assay: Inhibition of recombinant full length human PKAcbeta using KEAKEKRQEQIAKR as substrate incubated for 40 mins in presence of [gamma33P]ATP by radiometric scintillation counting analysis
Insulin receptor = Insulin receptor (Homo sapiens, UniProt P06213); assay: Inhibition of human recombinant activated IR (1005 to 1310 residues) using KKSRGDYMTMQIG as substrate after 40 mins by [gamma-33ATP]by radiometric scintillation counting analysis
[3] = target: Serine/threonine-protein kinase Nek7 (Homo sapiens, UniProt Q8TDX7); assay: Inhibition of recombinant human NEK7 (2 to end residues) using FLAKSFGSPNRAYKK as substrate measured after 40 mins in presence of [gamma33P]ATP by radiometric scintillation counting analysis
[4] = target: Mast/stem cell growth factor receptor Kit (Homo sapiens, UniProt P10721, V654A); assay: Inhibition of recombinant human C-Kit V654A mutant (544 to end residues) using poly(Glu, Tyr) 4:1 as substrate incubated 40 mins in presence of [gamma-33ATP] by radiometric scintillation counting analysis
Chain of Mast/stem cell growth factor receptor Kit (P10721 26-976 V654A limits assumed): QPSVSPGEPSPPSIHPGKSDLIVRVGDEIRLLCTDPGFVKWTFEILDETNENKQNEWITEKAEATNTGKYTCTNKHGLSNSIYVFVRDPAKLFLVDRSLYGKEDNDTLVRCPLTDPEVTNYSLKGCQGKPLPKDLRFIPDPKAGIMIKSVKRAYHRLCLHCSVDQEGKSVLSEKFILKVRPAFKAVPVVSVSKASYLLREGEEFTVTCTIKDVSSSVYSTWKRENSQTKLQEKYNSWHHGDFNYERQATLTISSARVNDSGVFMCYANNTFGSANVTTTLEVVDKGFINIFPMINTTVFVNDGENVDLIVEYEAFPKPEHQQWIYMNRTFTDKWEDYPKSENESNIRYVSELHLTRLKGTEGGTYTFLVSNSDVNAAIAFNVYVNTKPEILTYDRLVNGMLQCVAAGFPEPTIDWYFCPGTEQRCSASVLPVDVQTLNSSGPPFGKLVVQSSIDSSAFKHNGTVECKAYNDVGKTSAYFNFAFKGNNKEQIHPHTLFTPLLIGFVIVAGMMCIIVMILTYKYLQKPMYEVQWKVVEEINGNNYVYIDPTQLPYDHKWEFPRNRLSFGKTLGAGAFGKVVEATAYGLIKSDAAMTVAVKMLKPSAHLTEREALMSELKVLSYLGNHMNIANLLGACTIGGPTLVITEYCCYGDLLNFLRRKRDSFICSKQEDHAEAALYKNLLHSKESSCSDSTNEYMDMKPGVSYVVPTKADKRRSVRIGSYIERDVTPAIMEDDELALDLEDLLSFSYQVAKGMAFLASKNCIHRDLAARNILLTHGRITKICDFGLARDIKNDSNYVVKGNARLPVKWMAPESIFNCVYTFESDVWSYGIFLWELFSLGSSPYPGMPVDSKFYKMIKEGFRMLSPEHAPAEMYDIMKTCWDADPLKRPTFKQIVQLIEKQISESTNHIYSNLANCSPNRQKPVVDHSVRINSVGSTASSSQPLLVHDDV

SRSF protein kinase 1 = SRSF protein kinase 1 (Homo sapiens, UniProt Q96SB4); assay: Inhibition of recombinant human SRPK1 (2 to end residues) using RSRSRSRSRSRSRSR as substrate incubated for 40 mins in presence of [gamma33P]ATP by radiometric scintillation counting analysis
[5] = target: Leucine-rich repeat serine/threonine-protein kinase 2 (Homo sapiens, UniProt Q5S007); assay: Inhibition of recombinant human LRRK2 (970 to end residues) using RLGRDKYKTLRQI as substrate after 40 mins in presence of [gamma-33ATP] by radiometric scintillation counting analysis
Chain of Leucine-rich repeat serine/threonine-protein kinase 2 (Q5S007 whole entry, the tested form may be a part): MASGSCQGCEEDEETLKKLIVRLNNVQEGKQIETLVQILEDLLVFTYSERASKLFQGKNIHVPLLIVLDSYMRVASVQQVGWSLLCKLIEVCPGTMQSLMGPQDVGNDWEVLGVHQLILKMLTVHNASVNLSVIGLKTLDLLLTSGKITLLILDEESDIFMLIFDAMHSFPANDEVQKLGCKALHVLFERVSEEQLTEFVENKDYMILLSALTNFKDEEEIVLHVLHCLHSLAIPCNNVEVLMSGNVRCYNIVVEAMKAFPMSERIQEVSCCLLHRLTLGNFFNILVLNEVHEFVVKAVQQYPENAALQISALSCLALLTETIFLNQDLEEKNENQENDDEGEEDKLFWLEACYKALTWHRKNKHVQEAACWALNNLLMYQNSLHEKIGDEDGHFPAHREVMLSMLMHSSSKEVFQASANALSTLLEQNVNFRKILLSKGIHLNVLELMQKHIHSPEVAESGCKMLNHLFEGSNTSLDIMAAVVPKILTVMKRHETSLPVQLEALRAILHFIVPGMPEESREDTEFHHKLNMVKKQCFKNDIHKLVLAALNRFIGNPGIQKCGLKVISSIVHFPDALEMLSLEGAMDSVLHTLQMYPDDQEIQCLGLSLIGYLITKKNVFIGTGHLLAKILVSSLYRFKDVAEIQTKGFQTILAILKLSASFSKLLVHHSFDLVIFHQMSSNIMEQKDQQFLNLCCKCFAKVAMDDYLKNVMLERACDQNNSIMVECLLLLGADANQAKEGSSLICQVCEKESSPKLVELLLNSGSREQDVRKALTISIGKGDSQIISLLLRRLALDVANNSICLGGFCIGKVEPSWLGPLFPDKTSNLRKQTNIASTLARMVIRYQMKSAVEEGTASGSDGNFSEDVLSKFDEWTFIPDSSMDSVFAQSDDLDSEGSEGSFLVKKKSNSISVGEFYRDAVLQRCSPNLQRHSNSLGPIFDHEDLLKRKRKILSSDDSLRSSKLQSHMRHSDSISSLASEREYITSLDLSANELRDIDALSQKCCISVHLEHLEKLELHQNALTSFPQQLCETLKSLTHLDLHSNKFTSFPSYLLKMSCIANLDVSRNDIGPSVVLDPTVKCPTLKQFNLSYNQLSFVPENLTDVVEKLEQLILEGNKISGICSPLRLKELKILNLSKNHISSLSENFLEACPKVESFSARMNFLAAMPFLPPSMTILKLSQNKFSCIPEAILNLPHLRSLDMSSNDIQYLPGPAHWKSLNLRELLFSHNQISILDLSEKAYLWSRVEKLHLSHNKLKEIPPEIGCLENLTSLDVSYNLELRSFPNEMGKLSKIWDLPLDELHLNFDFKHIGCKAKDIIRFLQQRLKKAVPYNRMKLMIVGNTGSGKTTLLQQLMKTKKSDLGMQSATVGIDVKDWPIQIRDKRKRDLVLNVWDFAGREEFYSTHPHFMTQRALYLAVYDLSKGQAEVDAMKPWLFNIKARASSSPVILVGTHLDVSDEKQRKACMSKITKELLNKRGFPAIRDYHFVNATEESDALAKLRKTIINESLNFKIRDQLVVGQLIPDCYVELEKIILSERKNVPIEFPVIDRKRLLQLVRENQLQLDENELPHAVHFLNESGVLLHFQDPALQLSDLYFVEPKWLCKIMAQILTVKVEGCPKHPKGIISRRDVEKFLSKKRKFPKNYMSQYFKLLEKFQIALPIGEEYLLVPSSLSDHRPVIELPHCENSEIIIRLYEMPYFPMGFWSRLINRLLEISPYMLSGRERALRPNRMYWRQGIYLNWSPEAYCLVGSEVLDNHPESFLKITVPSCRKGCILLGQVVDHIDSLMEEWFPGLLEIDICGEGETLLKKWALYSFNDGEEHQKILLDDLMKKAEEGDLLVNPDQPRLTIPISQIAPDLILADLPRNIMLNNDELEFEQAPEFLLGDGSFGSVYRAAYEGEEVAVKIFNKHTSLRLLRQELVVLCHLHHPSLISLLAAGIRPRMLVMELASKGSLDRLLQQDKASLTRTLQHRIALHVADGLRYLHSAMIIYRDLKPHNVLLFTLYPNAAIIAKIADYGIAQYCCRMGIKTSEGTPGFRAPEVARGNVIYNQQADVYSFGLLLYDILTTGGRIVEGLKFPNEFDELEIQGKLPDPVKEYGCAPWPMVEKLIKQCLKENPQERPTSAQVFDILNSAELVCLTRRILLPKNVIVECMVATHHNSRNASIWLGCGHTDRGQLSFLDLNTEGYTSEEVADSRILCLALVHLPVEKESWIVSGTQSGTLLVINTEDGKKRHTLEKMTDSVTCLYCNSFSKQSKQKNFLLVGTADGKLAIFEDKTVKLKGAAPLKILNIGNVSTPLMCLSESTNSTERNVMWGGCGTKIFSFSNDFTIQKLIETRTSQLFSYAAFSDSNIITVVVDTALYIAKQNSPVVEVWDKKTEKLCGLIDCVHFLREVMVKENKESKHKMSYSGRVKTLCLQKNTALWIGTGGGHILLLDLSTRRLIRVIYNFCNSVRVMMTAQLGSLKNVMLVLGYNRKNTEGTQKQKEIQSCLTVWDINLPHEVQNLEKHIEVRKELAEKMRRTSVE

[6] = Inhibition of human SNRK E97G/P116A double mutant (65 to 409 residues) using KKLRRTLSFAEPG as substrate incubated for 40 mins in presence of [gamma33P]ATP by radiometric scintillation counting analysis
[7] = target: Hepatocyte growth factor receptor (Homo sapiens, UniProt P08581, Y1230H); assay: Inhibition of recombinant human MET A1209G/V1290L/Y1248H triple mutant (974 to end residues) using KKKGQEEEYVFIE as substrate incubated for 40 mins in presence of [gamma-33ATP by radiometric scintillation counting analysis
[8] = target: Serine/threonine-protein kinase PLK1 (Homo sapiens, UniProt P53350); assay: Inhibition of recombinant full-length human Plk1 using casein as substrate incubated for 40 mins in presence of [gamma33P]ATP by radiometric scintillation counting analysis
[9] = Inhibition of recombinant human PAK2 L150F/P225T/A339 deletion/V383I mutant (3 to end residues) using KEAKEKRQEQIAKR as substrate incubated for 40 mins in presence of [gamma33P]ATP by radiometric scintillation counting analysis
CDK12/Cyclin K = CDK12/Cyclin K (Homo sapiens, UniProt Q9NYV4); assay: Inhibition of recombinant full length human CDK12/cyclinK using RSRSRSRSRSRSR as substrate incubated for 120 mins in presence of [gamma-33ATP] by radiometric scintillation counting analysis; assay type: protein-complex assay
[10] = target: Serine/threonine-protein kinase WNK2 (Homo sapiens, UniProt Q9Y3S1); assay: Inhibition of recombinant human WNK2 (166 to 489 residues) using myelin basic protein as substrate incubated for 40 mins in presence of [gamma33P]ATP by radiometric scintillation counting analysis
[11] = target: Inhibitor of nuclear factor kappa-B kinase subunit epsilon (Homo sapiens, UniProt Q14164); assay: Inhibition of recombinant full length human IKKepsilon using casein as substrate after 40 mins by [gamma-33ATP] by radiometric scintillation counting analysis
Tribbles homolog 2 = Tribbles homolog 2 (Homo sapiens, UniProt Q92519); assay: Inhibition of recombinant full-length human TRB2 using RRRFRPASPLRGP as substrate incubated for 120 mins in presence of [gamma33P]ATP by radiometric scintillation counting analysis
Focal adhesion kinase 1 = Focal adhesion kinase 1 (Homo sapiens, UniProt Q05397); assay: Inhibition of recombinant human FAK (411 to 686 residues) using EEEEYEEEEEEYY as substrate after 40 mins in presence of [gamma-33ATP] by radiometric scintillation counting analysis
Chain of Focal adhesion kinase 1 (Q05397 whole entry, the tested form may be a part): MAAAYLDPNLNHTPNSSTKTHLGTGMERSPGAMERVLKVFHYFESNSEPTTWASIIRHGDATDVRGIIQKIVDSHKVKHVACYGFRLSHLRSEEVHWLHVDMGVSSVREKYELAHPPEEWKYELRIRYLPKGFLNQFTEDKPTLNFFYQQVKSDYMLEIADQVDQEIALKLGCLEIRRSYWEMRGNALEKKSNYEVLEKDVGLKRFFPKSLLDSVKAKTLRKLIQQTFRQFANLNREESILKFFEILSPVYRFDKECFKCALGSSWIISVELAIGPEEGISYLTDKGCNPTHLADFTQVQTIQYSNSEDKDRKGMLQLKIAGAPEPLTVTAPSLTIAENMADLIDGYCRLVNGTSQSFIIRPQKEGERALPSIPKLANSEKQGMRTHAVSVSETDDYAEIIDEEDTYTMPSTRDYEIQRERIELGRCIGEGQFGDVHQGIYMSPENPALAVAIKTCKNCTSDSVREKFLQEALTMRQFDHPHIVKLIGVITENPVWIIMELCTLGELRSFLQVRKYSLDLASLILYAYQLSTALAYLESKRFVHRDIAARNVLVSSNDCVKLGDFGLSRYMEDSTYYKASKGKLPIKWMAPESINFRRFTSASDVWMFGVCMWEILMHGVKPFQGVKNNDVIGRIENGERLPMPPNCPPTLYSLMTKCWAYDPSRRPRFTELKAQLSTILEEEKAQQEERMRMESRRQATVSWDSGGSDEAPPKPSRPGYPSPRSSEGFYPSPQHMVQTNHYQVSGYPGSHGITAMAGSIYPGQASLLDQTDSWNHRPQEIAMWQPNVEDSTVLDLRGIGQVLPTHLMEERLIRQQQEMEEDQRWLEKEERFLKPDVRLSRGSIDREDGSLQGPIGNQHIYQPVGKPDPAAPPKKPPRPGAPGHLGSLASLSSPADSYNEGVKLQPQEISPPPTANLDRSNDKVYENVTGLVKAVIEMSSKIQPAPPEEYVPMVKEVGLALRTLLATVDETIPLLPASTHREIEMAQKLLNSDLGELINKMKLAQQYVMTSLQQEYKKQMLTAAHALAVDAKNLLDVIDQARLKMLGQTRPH

[12] = target: Tyrosine-protein kinase ABL1 (Homo sapiens, UniProt P00519, Q252H); assay: Inhibition of human recombinant ABL1 Q252H mutant (27 to end residues) using EAIYAAPFAKKK as substrate incubated for 40 mins in presence of [gamma-33P]ATP by radiometric scintillation counting analysis
[13] = target: Protein kinase C beta type (Homo sapiens, UniProt P05771); assay: Inhibition of recombinant human PKCbeta1 (2 to end residues) using histone H1 as substrate incubated for 40 mins in presence of [gamma33P]ATP by radiometric scintillation counting analysis
[14] = target: Homeodomain-interacting protein kinase 3 (Homo sapiens, UniProt Q9H422); assay: Inhibition of human recombinant HIPK3 (161 to 562 residues) using myelin basic protein as substrate after 40 mins by [gamma-33ATP] radiometric assay
[15] = target: Fibroblast growth factor receptor 2 (Homo sapiens, UniProt P21802); assay: Inhibition of recombinant human FGFR2 (456 to 770 residues) using poly(Glu, Tyr) 4:1 as substrate after 40 mins in presence of [gamma-33ATP] by radiometric scintillation counting analysis
[16] = target: Tyrosine-protein kinase ABL1 (Homo sapiens, UniProt P00519, T315I); assay: Inhibition of human recombinant ABL1 T315I mutant (27 to end residues) using EAIYAAPFAKKK as substrate incubated for 40 mins in presence of [gamma-33P]ATP by radiometric scintillation counting analysis
[17] = target: Death-associated protein kinase 1 (Homo sapiens, UniProt P53355); assay: Inhibition of recombinant human DAPK1 (1 to 296 residues) using KKLNRTLSFAEPG as substrate incubated 40 mins in presence of [gamma-33ATP] by radiometric scintillation counting analysis
[18] = target: Serine/threonine-protein kinase Chk1 (Homo sapiens, UniProt O14757); assay: Inhibition of recombinant full length human CHK1 using KKKVSRSGLYRSP as substrate incubated for 40 mins in presence of [gamma-33ATP] by radiometric scintillation counting analysis
Chain of Serine/threonine-protein kinase Chk1 (O14757 whole entry): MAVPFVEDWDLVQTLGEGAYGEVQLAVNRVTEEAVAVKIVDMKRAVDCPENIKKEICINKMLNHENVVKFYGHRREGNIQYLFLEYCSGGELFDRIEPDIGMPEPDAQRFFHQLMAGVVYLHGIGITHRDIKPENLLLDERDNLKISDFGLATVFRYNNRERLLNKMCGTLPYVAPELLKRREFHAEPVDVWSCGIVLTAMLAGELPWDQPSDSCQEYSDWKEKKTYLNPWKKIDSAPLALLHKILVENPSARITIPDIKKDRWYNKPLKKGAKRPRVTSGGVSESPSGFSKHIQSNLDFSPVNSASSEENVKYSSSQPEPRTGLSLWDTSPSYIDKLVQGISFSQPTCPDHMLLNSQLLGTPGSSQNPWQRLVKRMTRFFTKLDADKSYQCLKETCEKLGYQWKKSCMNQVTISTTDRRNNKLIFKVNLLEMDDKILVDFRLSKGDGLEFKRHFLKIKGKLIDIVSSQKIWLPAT

Activin receptor type-1 = Activin receptor type-1 (Homo sapiens, UniProt Q04771); assay: Inhibition of human recombinant ALK2 (147 to end residues) using casein as substrate incubated for 40 mins in presence of [gamma-33P]ATP by radiometric scintillation counting analysis
[19] = target: NT-3 growth factor receptor (Homo sapiens, UniProt Q16288); assay: Inhibition of recombinant human TRKC (510 to end residues) using GEEPLYWSFPAKK as substrate incubated for 40 mins in presence of [gamma33P]ATP by radiometric scintillation counting analysis

Measured: IC50

CN(C)c1ccc(C(=O)Nc2cccc(NC(=O)COc3ccc4c(=O)ccoc4c3)c2)cc1
> 10 µM: all assays above

— ChEMBL document CHEMBL4376834, “Discovery of 4H-Chromen-4-one Derivatives as a New Class of Selective Rho Kinase (ROCK) Inhibitors, which Showed Potent Activity in ex Vivo Diabetic Retinopathy Models” (J Med Chem, 2019)
